Laboratory results as given in patent EP0573682A1, “Tea polyphenols as anti-hyperglycemic agents” (MITSUI NORIN CO., LTD., priority 1992, dated 1993).

Legend:
ICR mice = experiment: Acute toxicity; type: in vivo; conditions: perorally administered; 6 week ICR male mice; 10080 min
Description: (§1) (-)Epigallocatechin gallate was tested with respect to its acute toxicity. Where (-)epigallocatechin gallate was perorally administered to 6 week ICR male mice, LD₅₀ after one week was 2314mg/kg. Where (-)epigallocatechin was administered intraperitonealy to 5 week old female ICR mice, LD₅₀ after one week was 150mg/kg.

Acute toxicity = type: in vivo, mice; conditions: mouse, in vivo, ip; administered intraperitonealy; 5 week old female ICR mice; read-out: LD₅₀ after one week
Description: as §1

Structure (SMILES) | LD₅₀ after one week (ICR mice) [mg/kg] | LD50 at 168 h (Acute toxicity) [mg/kg]
O=C(O[C@@H]1Cc2c(O)cc(O)cc2O[C@@H]1c1cc(O)c(O)c(O)c1)c1cc(O)c(O)c(O)c1 [(-)epigallocatechin gallate, (-) Epigallocatechin gallate] | 2314 | –
Oc1cc(O)c2c(c1)O[C@H](c1cc(O)c(O)c(O)c1)[C@H](O)C2 [(-)epigallocatechin, (-) Epigallocatechin] | – | 150
